Data published in US20190159457A1, “Combinatorial Compositions of Benzoxaboroles and Biologic Agents” (Boragen, Inc., priority 2017, published 2019).

Columns and labels:
Type in all cases: cell-based
[1] = test system: Bacillus subtilis; test: Toxicity of oxaborole compound on Bacillus subtilis (MIC); settings: 48 hours, about 37 °C, 1×10^5 CFU/mL
Method: The final concentration of Bacillus subtilis was 1×10^5 CFU/mL.
Plates sealed with clear polyester film (VWR) were incubated at a temperature of about 37° C. The progress of Bacillus subtilis growth was monitored at 48 hours.

[2] = test system: Botrytis cinerea B05.10 (B05.10); test: Inhibition rate of fungal hyphae growth on PDA petri dish; settings: Bacillus subtilis −
Method: (§1) The synergistic or additive effect of Bacillus subtilis in combination with an oxaborole compound on fungicidal compounds was evaluated by determining the inhibition rate of fungal growth on a petri dish. The oxaborole compound used for the example was BAG8. The inhibition rate was calculated as: inhibition %=(X−Y)/X*100, where X is the diameter of fungal hyphae grown on control without any fungicidal compound or beneficial bacteria.
(§2) The ability of Bacillus subtilis to inhibit growth of the four example fungal pathogens was evaluated by determining the inhibition rate of fungal hyphae on the PDA petri dishes (diameter of 100 mm) with the bacteria (initial bacterial cells: 2000CFU). 0.2 mL of Bacillus subtilis (lx 10^3, 1×10^4, 1×10^5, 1×10^6FU/mL) was spread on the PDA plates. The plates were cultured at 37° C. overnight, followed by inoculating the fresh fungal agar plugs ( 3/16 inch, diameter). The PDA plates with fungal agar plugs were cultured at 25° C. for 4-7 days, and then diameters of hyphae were measured. The inhibition rate was calculated as: inhibition %=(X−Y)/X*100, where X is the diameter of fungal hyphae grown on control without the bacteria. Inhibition rate of 100% means that the fungus cannot grow on PDA medium.
(§3) Testing was performed to compare inhibition performance of BAG8 by itself versus BAG8 in combination with Bacillis subtilis. Initially, the PDA plates (diameter of 100 mm) were prepared with various concentrations (0, 0.2, 0.5, 1, 2, 5 and 10 ug/mL) of the BAG8 compound;
(§4) Then, 0.2 mL of Bacillus subtilis (1×10^4CFU/mL) were spread onto some of the PDA plates with fungicide compounds. The […] Botrytis cinerea, Fusarium oxysporum f sp. Cubense, Mycosphaerella graminicola, and Sclerotinia sclerotiorum.
(§5) The PDA plates with the combined BAG8 and Bacillus subtilis were inoculated with the fresh fungal agar plugs ( 3/16 inch, diameters) and the plates were cultured at 25° C. for 4-7 days, and then diameters of hyphae were measured. The inhibition rate was calculated as: inhibition %=(X−Y)/X*100, where X is the diameter of fungal hyphae grown on control without the bacteria.

[3] = test system: Fusarium oxysporum f sp. cubense tropical race 4 (FOC.TR4); test: as above; settings: Bacillus subtilis −
Method: as §1, §2, §3, §4, §5

[4] = test system: Mycosphaerella graminicola (SLB); test: as above; settings: Zymoseptoria tritici, Bacillus subtilis −
Method: as §1, §2, §3, §4, §5

[5] = test system: Sclerotinia sclerotiorum 1980 (Ss1980); test: as above; settings: Bacillus subtilis −
Method: as §1, §2, §3, §4, §5

Work on `OB1OCc2cc(Cl)ccc21` [BAG8, 5-chlorobenzo[c][1,2]oxaborol-1(3H)-ol] yielded an MIC [1] of over 25 µg/mL, an inhibition at 0.2 µg/mL ([2]; BAG8 0.2 ug/mL) of 10% and an inhibition at 0.5 µg/mL ([2]; BAG8 0.5 ug/mL) of 23%. The inhibition at 1 µg/mL ([2]; BAG8 1 ug/mL) was 69%, the inhibition at 2 µg/mL ([2]; BAG8 2 ug/mL) was 98% and the inhibition at 0.2 µg/mL ([3]; BAG8 0.2 ug/mL) was 9%. The inhibition at 0.5 µg/mL ([3]; BAG8 0.5 ug/mL) was 47%, the inhibition at 1 µg/mL ([3]; BAG8 1 ug/mL) was 95% and the inhibition at 2 µg/mL ([3]; BAG8 2 ug/mL) was 94%. The inhibition at 0.2 µg/mL ([4]; BAG8 0.2 ug/mL) was 6%, the inhibition at 0.5 µg/mL ([4]; BAG8 0.5 ug/mL) was 38% and the inhibition at 1 µg/mL ([4]; BAG8 1 ug/mL) was 93%. It also gave an inhibition at 2 µg/mL ([4]; BAG8 2 ug/mL) of 96%, an inhibition at 0.2 µg/mL ([5]; BAG8 0.2 ug/mL) of 12% and an inhibition at 0.5 µg/mL ([5]; BAG8 0.5 ug/mL) of 48%. For the same molecule, the inhibition at 1 µg/mL ([5]; BAG8 1 ug/mL) was 94% and the inhibition at 2 µg/mL ([5]; BAG8 2 ug/mL) was 98%.
